Measurements from patent US8841269B2, “Polynucleotides for use in treating and diagnosing cancers” (Creighton University, priority 2010, dated 2014).

Assays:
Format in all cases: cell-based, human
ERK1/2 = experiment: Estrogen induced ERK1/2 activation (phos-ERK Western blot) in MDA-MB-231; conditions: MDA-MB-231, 10 nmol/L E2 after estrogen starvation
Method: After mixed with gel-loading buffer and boiled for 5 minutes, the protein samples were separated with 10% SDS-PAGE and transferred to a PVDF membrane (Millipore, Billerica, Mass.). The blots were probed with specific first antibodies and appropriate second antibodies. The blots were visualized with enhanced chemiluminescence (ECL) reagents (Pierce, Minneapolis, Minn.) and documented with a Fluor Chem FC2 (Alpha Innotech, Santa Clara, Calif.) image system. Gel density was quantified with Quantity One and expressed as a relative value against β-actin. The anti-ERK1/2 (#9102) and antipERK1/2 (#9106) were purchased from Cell Signaling Technology (Danvers, Mass.). Anti-ER-α66 (RB-9016) was obtained from Thermoscientific (Rockford, Ill.). Anti-ER-α36 antibody was an affinity-purified rabbit polyclonal anti-ER-36 antibody generated as a custom service from Pacific Immunology Corp (Ramona, Calif.). The ER-α36 antibody was raised against a synthetic peptide antigen corresponding to the unique C-terminal 20 aa of ER-α36.
ER-α36 is mainly localized on the plasma membrane and mediates the non-genomic estrogen pathways (Wang et al., 2005, Biochem. Biophys. Res. Commun. 336:1023-7, Wang et al., 2006, Proc. Natl. Acad. Sci. U.S.A., 103:9063-8). We reasoned that the inhibition on ER-α36 expression by let-7 family miRNAs might dampen the non-genomic estrogen pathway. […]

ER-α36 mRNA = experiment: Real-time PCR of ER-α36 mRNA after transfection; conditions: for ER-α36 mRNA expression: MDA-MB-231, mimics, vs negative control miRNA; for ER-α36 mRNA level: MDA-MB-231, two days post transfection
Method: To assess the expression levels of ER-α66 and ER-α36 with real-time PCR, total RNA was extracted using Trizol reagent (Invitrogen, Carsbad, Calif.). One microgram RNA was used for cDNA synthesis with the SuperScript III first-strand synthesis system (Invitrogen, Carsbad, Calif.). After 10 dilution, 4 μL cDNA was used in 20 μL reaction volume, which includes 4 μL of 1.5 μmol/L primers, 2 μL of 2 μmol/L probes, and 10 μL TaqMan universal PCR master mix with ampErase UNG (Applied Biosystems). The reaction condition was the same as miRNA real-time PCR. β-Actin was the internal control (Applied Biosystems, Foster City, Calif.). The primers for ER-α66 are: 5′-GCGGCCACGGACCAT (forward) (SEQ ID NO:20); 5′-[…] (SEQ ID NO:21) (reverse); 5′-FAM-[…]-TAMRA-3′ (probe) (SEQ ID NO:22). The primers for ER-α36 are: 5′-[…] (forward) (SEQ ID NO:23); 5′-[…] (reverse) (SEQ ID NO:24); 5′-[…] TAMRA-3′ (probe) (SEQ ID NO:43).
Let-7 miRNA or negative control #1 miRNA of 60 nmol/L (Ambion, Austin, Tex.) was transfected into cells with the siPORT NeoFX reagent (Ambion, Austin, Tex.) following the manufacturer's protocol.

MCF7 cells = experiment: MTT cell proliferation assay in MCF7; conditions: for cell growth (MTT) with E2: MCF7, E2 free medium with addition of 10 nmol/L E2; for cell growth (MTT): MCF7, E2 free medium with or without addition of 10 nmol/L E2 (FIG. 9B-D); for day from which significant effect on proliferation was detected / cell proliferation (MTT): MCF7, normal growth medium; for cell proliferation (MTT): 60 nmol/L
Method: MTT cell proliferation assay. MCF7 cells were transfected with let-7 mimics or negative controls (60 nmol/L) in normal growth medium for 1 day, or in medium with 2.5% charcoal-stripped FBS for 2 days to exhaust endogenous estrogen, following the protocol of siPORT NeoFX Transfection Agent (Applied Biosystems). For the experiment in normal growth medium, 10^4 cells in the volume of 100 μL were seeded in a 96-well plate for 12 hours and assay lasted for another 4 days. For experiments in E2 free medium, 1.5 10^4 cells were seeded in a 96-well plate for 12 hours and then exposed to 10 nmol/L E2, or not, for up to 4 days. For both experiments, each treatment had 12 replicates on the plate. The cells were then incubated in 0.83 mg/mL 3-[4,5-dimethylthiazol-2-yl]-2,5-diphenyltetrazolium bromide (MTT) in growth medium at 37° C. for 4 h and lysed in 100 μL of DMSO at room temperature for 15 min. The absorbance in each well was measured at 490 nm by an ELx800 Absorbance Microplate Reader (Biotek). Cell proliferation was normalized to day 0.

[1] = Real-time PCR quantification of mature let-7 after mimic transfection in MCF7; conditions: for rank of forced expression throughout the time course: MCF7, relative quantity against RNU48
Method: Quantitative real-time PCR. For miRNA quantification in FFPE tissues, total RNA was extracted as described above; for miRNA quantification in cell lines, total RNA was isolated using mirVana miRNA Isolation Kit (Ambion Inc.). cDNA was synthesized by using 100 ng total RNA in a reaction volume of 15 μL, by following the protocol of Taqman miRNA Reverse Transcription Kit (Applied Biosystems). After 15 times dilution, 9 μL cDNA was used for real-time PCR in a 20 μL reaction volume, including 10 μL of master mix and 1 μL Taqman probe (Applied Biosystems). This reaction system only detects mature miRNAs not pre-miRNAs. The level of each miRNA was expressed following the 2^−ΔΔCt or […] method using the small nuclear RNA, RNU48, as the internal reference.
For FFPE tissues, there was the same repeat number as in microarray; for cell lines, there were three biological repeats. Each sample had three technical repeats on the PCR plate. Real-time PCR was performed on an Applied Biosystems 7900HT real-time PCR instrument. PCR was initiated by two holds of 52° C. 2 min and 94° C. 10 min each, followed by 40 cycles of 15 s at 95° C. and 1 min at 60° C.

[2] = MCF7, one day post transfection, 60 nmol/L each

Substance | estrogen induced activation of the ERK1/2 (nongenomic estrogen pathway) (ERK1/2) | ER-α36 mRNA expression (ER-α36 mRNA) | ER-α36 mRNA level (ER-α36 mRNA) | cell growth (MTT) with E2 (MCF7 cells) | cell growth (MTT) (MCF7 cells) | day from which significant effect on proliferation was detected (MCF7 cells) | cell proliferation (MTT) (MCF7 cells) | expression of let-7b relative to let-7a and let-7i ([1]; MCF7, after 2 days) | mature let-7b level relative to let-7a ([1]; MCF7, after 6 days) | mature let-7b level relative to let-7a [1, 2] | mature let-7b level relative to let-7i [1, 2] | rank of forced expression throughout the time course [1]
let-7b: let-7b miRNA (mimic), 3′-UUGGUGUGUUGGAUGAUGGAGU-5′ (SEQ ID NO:8) (chemistry not given here; listed 3' to 5') | significantly inhibited | 30 % of the controls | inhibited | consistent inhibition | strongly inhibited | 2 days | significantly inhibited cell proliferation | 2 | ~10 | ~20 | ~6 | highest expression
let-7i: let-7i miRNA (mimic), 3′-UUGUCGUGUUUGAUGAUGGAGU-5′ (SEQ ID NO:14) (chemistry not given here; listed 3' to 5') | significantly inhibited | 30 % of the controls | inhibited | consistent inhibition | strongly inhibited | 3 days | significantly inhibited cell proliferation | – | – | – | – | in the middle
